# Experimental data: patent US20260232767A1, “INTERLEUKIN-23 RECEPTOR ANTAGONIST PEPTIDES FOR USE IN THE TREATMENT OF PSORIASIS” (Janssen Pharmaceutica NV, priority 2023, published 2026)
# Where two headings read alike, the source gives them in different places.
# Experiment: Plasma concentrations (PK), Example 1
# Format: in vivo, human
# Conditions: human, plasma, oral; for level at 1344 h: Week 8; for level at 168 h: Week 1, Trough; for level at 672 h: Week 4
# Description: For QD dosing, peak concentration was defined as any PK sample taken between 0.25 to <6 hours after the last morning dose and trough concentration was at least 20 hours after the last morning dose. For BID dosing, peak concentration was defined as any PK sample taken between 0.25 to <4 hours after the last dose and trough concentration was at least 8 hours after the last dose.
# [1] = 50 mg, 50 mg QD, Peak, read-out: Plasma concentration, Geometric Mean
# [2] = 50 mg, 50 mg QD, Peak, read-out: Plasma concentration, Mean
# [3] = 50 mg, 50 mg QD, Peak, read-out: Plasma concentration, Median
smiles,measurement,setting,value
"CC(=O)NCCCC[C@@H]1NC(=O)[C@H](Cc2c[nH]c3c(C)cccc23)NC(=O)[C@H]([C@@H](C)O)NC(=O)[C@H](CC(N)=O)NC(=O)[C@@H](NC(C)=O)C(C)(C)SSC(C)(C)[C@@H](C(=O)N[C@@H](Cc2ccc(OCCN)cc2)C(=O)N[C@@H](Cc2ccc3ccccc3c2)C(=O)NC2(C(=O)N[C@@H](CCC(=O)O)C(=O)N[C@@H](CC(N)=O)C(=O)N[C@@H](Cc3cccnc3)C(=O)N(C)CC(N)=O)CCOCC2)NC1=O [IL-23 receptor antagonist peptide, Ac-[Pen]*-N-T-[W(7-Me)]-[Lys(Ac)]-[Pen]*-Phe[4-(2-aminoethoxy)]-[2-Nal]-[THP]-E-N-[3-Pal]-Sarc-NH2 (*[Pen]-[Pen]* formdisulfidebond)]",level at 1344 h,"25 mg, 25 mg QD, Trough, read-out: Plasma concentration, Median",0.06 ng/mL
same,level at 2016 h,"25 mg, 25 mg QD, Week 12, Trough, read-out: Plasma concentration, Mean",0.052 ng/mL
same,level at 2016 h,"25 mg, weight >90 kg, 25 mg BID, Week 12, Intermediate, read-out: Plasma concentration, Geometric Mean",0.214 ng/mL
same,level at 2016 h,"25 mg, weight >90 kg, 25 mg BID, Week 12, Peak, read-out: Plasma concentration, Geometric Mean",0.32 ng/mL
same,level at 2016 h,"25 mg, weight >90 kg, 25 mg BID, Week 12, Peak, read-out: Plasma concentration, Mean",0.391 ng/mL
same,level at 2016 h,"25 mg, weight >90 kg, 25 mg BID, Week 12, Peak, read-out: Plasma concentration, Median",0.365 ng/mL
same,level at 2688 h,"25 mg, weight >90 kg, 25 mg BID, Week 16, Intermediate, read-out: Plasma concentration, Mean",0.181 ng/mL
same,level at 2688 h,"25 mg, weight >90 kg, 25 mg BID, Week 16, Trough, read-out: Plasma concentration, Geometric Mean",0.144 ng/mL
same,level at 2688 h,"25 mg, weight >90 kg, 25 mg BID, Week 16, Trough, read-out: Plasma concentration, Mean",0.152 ng/mL
same,level at 2688 h,"25 mg, weight >90 kg, 25 mg BID, Week 16, Trough, read-out: Plasma concentration, Median",0.138 ng/mL
same,level at 168 h,"25 mg, weight >90 kg, 25 mg QD, read-out: Plasma concentration, Mean",0.044 ng/mL
same,level at 2016 h,"25 mg, weight >90 kg, 25 mg QD, Week 12, Peak, read-out: Plasma concentration, Geometric Mean",0.236 ng/mL
same,level at 2016 h,"25 mg, weight >90 kg, 25 mg QD, Week 12, Peak, read-out: Plasma concentration, Mean",0.281 ng/mL
same,level at 2016 h,"25 mg, weight >90 kg, 25 mg QD, Week 12, Peak, read-out: Plasma concentration, Median",0.291 ng/mL
same,level at 2688 h,"25 mg, weight >90 kg, 25 mg QD, Week 16, Intermediate, read-out: Plasma concentration, Mean",0.165 ng/mL
same,level at 2688 h,"25 mg, weight >90 kg, 25 mg QD, Week 16, Trough, read-out: Plasma concentration, Geometric Mean",0.063 ng/mL
same,level at 2688 h,"25 mg, weight >90 kg, 25 mg QD, Week 16, Trough, read-out: Plasma concentration, Mean",0.066 ng/mL
same,level at 2688 h,"25 mg, weight >90 kg, 25 mg QD, Week 16, Trough, read-out: Plasma concentration, Median",0.047 ng/mL
same,level at 2016 h,"25 mg, weight ≤90 kg, 25 mg QD, Week 12, Trough, read-out: Plasma concentration, Mean",0.045 ng/mL
same,level at 672 h,[1],0.481 ng/mL
same,level at 672 h,[2],0.564 ng/mL
same,level at 672 h,[3],0.539 ng/mL
same,level at 1344 h,"50 mg, 50 mg QD, Intermediate, read-out: Plasma concentration, Geometric Mean",0.441 ng/mL
same,level at 1344 h,"50 mg, 50 mg QD, Intermediate, read-out: Plasma concentration, Mean",0.441 ng/mL
same,level at 1344 h,"50 mg, 50 mg QD, Intermediate, read-out: Plasma concentration, Median",0.441 ng/mL
same,level at 1344 h,[1],0.853 ng/mL
same,level at 1344 h,[2],1.1 ng/mL
same,level at 1344 h,[3],0.78 ng/mL
same,level at 1344 h,"50 mg, 50 mg QD, Trough, read-out: Plasma concentration, Geometric Mean",0.111 ng/mL
same,level at 1344 h,"50 mg, 50 mg QD, Trough, read-out: Plasma concentration, Mean",0.147 ng/mL
same,level at 1344 h,"50 mg, 50 mg QD, Trough, read-out: Plasma concentration, Median",0.112 ng/mL
same,level at 2016 h,"50 mg, 50 mg QD, Week 12, Trough, read-out: Plasma concentration, Mean",0.085 ng/mL
same,level at 168 h,"50 mg, weight >90 kg, 50 mg QD, read-out: Plasma concentration, Mean",0.073 ng/mL
same,level at 2016 h,"50 mg, weight >90 kg, 50 mg QD, Week 12, Peak, read-out: Plasma concentration, Geometric Mean",0.551 ng/mL
same,level at 2016 h,"50 mg, weight >90 kg, 50 mg QD, Week 12, Peak, read-out: Plasma concentration, Mean",0.786 ng/mL
same,level at 2016 h,"50 mg, weight >90 kg, 50 mg QD, Week 12, Peak, read-out: Plasma concentration, Median",0.388 ng/mL
same,level at 2688 h,"50 mg, weight >90 kg, 50 mg QD, Week 16, Intermediate, read-out: Plasma concentration, Mean",0.321 ng/mL
same,level at 2688 h,"50 mg, weight >90 kg, 50 mg QD, Week 16, Trough, read-out: Plasma concentration, Geometric Mean",0.105 ng/mL
same,level at 2688 h,"50 mg, weight >90 kg, 50 mg QD, Week 16, Trough, read-out: Plasma concentration, Mean",0.096 ng/mL
same,level at 2688 h,"50 mg, weight >90 kg, 50 mg QD, Week 16, Trough, read-out: Plasma concentration, Median",0.115 ng/mL
same,level at 2016 h,"50 mg, weight ≤90 kg, 50 mg QD, Week 12, Trough, read-out: Plasma concentration, Mean",0.083 ng/mL
same,level at 672 h,"100 mg, 100 mg BID, Intermediate, read-out: Plasma concentration, Geometric Mean",0.756 ng/mL
same,level at 672 h,"100 mg, 100 mg BID, Peak, read-out: Plasma concentration, Geometric Mean",1.7 ng/mL
